# In ChEMBL document CHEMBL1743201, “Casarett and Doull's Toxicology The Basic Science of Poisons, 7th edition” (2008):
# Key:
# Type in all cases: ADME
# [1] = molecular target: T1, Glutathione S-transferase kappa 1 (Homo sapiens, UniProt Q9Y2Q3); assay: Substrates for human mitochondrial glutathione transferase GSTK1
# T1 sequence (Q9Y2Q3 whole entry): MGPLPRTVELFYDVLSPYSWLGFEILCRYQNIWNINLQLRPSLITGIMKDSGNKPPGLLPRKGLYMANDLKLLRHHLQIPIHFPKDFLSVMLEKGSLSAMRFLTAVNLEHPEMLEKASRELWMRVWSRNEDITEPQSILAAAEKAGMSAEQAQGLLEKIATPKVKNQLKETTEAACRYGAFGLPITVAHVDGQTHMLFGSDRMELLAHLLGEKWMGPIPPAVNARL
# [2] = molecular target: T2, Cytochrome P450 2C8 (Homo sapiens, UniProt P10632); assay: Clinically relevant substrates of human liver microsomal P450 enzymes, isoform CYP2C8; details: microsomes
# T2 sequence (P10632 whole entry): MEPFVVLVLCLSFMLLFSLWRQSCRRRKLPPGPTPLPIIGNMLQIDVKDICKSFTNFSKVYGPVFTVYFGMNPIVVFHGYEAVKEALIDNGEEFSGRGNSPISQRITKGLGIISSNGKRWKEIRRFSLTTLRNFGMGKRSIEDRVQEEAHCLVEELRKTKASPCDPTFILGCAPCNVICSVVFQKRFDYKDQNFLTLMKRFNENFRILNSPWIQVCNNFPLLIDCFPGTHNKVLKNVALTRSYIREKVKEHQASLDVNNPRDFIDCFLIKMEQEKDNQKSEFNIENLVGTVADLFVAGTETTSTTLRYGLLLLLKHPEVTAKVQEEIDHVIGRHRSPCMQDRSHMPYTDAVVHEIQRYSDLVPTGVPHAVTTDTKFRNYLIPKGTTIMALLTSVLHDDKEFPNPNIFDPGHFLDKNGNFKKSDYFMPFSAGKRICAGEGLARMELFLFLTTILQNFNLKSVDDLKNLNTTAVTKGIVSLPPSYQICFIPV
# [3] = molecular target: T3, UDP-glucuronosyltransferase 2B17 (Homo sapiens, UniProt O75795); assay: Substrate of human UDP-glucuronosyltransferase UGT2B17
# T3 sequence (O75795 whole entry): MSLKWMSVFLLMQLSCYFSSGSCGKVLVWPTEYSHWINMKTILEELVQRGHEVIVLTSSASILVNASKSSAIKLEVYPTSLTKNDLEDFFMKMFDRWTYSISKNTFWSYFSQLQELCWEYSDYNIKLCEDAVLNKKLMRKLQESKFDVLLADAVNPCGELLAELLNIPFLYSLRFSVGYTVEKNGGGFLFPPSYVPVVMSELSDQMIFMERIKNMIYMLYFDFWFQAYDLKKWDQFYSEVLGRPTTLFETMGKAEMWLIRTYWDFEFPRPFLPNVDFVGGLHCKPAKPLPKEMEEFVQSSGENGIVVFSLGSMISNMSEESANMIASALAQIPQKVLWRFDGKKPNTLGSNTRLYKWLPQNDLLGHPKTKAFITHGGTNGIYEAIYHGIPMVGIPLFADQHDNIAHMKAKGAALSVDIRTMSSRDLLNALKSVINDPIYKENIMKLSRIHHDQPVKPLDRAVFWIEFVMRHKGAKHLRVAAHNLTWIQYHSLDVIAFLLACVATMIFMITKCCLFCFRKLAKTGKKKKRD
# [4] = molecular target: T4, Maleylacetoacetate isomerase (Homo sapiens, UniProt O43708); assay: Substrates for human cytosolic glutathione transferase GSTZ1
# T4 sequence (O43708 whole entry): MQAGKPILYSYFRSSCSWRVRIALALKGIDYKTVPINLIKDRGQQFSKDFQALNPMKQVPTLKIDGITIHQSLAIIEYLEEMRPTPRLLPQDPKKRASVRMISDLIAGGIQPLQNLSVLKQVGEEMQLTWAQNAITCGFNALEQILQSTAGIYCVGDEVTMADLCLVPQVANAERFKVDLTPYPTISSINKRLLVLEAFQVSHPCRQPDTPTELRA
# [5] = molecular target: T5, UDP-glucuronosyltransferase 2B4 (Homo sapiens, UniProt P06133); assay: Substrate of human UDP-glucuronosyltransferase UGT2B4
# T5 sequence (P06133 whole entry): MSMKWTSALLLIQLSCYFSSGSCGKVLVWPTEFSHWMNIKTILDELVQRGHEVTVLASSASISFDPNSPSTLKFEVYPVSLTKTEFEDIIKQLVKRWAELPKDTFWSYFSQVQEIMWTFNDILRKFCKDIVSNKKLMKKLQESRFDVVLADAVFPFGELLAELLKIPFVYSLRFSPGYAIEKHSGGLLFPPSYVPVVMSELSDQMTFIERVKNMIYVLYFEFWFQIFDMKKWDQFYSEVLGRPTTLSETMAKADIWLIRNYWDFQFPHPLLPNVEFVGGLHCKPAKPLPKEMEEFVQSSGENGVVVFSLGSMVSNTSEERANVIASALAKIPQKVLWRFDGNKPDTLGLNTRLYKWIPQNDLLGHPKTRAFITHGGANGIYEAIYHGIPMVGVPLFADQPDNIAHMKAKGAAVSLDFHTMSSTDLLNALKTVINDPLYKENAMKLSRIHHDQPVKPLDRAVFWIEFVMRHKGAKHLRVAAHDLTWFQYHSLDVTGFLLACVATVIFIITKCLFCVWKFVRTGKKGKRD
# [6] = molecular target: T6, UDP-glucuronosyltransferase 2B7 (Homo sapiens, UniProt P16662); assay: Substrate of human UDP-glucuronosyltransferase UGT2B7
# T6 sequence (P16662 whole entry): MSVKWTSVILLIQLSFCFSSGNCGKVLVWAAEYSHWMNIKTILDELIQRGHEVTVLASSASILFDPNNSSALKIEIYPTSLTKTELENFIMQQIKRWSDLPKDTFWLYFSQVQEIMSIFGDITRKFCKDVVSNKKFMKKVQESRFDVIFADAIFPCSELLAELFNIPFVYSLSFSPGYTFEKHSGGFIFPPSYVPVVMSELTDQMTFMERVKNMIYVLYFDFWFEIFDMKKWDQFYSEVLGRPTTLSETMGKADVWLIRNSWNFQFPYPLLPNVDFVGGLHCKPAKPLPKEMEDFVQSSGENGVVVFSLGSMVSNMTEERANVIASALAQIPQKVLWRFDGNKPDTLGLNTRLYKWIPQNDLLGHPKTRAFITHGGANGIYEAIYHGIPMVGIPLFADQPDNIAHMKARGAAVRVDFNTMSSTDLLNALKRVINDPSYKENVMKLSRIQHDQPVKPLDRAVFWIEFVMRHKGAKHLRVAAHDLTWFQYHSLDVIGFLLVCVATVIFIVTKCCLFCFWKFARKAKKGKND
# [7] = molecular target: T7, UDP-glucuronosyltransferase 1A1 (Homo sapiens, UniProt P22309); assay: Substrate of human UDP-glucuronosyltransferase UGT1A1
# T7 sequence (P22309 whole entry): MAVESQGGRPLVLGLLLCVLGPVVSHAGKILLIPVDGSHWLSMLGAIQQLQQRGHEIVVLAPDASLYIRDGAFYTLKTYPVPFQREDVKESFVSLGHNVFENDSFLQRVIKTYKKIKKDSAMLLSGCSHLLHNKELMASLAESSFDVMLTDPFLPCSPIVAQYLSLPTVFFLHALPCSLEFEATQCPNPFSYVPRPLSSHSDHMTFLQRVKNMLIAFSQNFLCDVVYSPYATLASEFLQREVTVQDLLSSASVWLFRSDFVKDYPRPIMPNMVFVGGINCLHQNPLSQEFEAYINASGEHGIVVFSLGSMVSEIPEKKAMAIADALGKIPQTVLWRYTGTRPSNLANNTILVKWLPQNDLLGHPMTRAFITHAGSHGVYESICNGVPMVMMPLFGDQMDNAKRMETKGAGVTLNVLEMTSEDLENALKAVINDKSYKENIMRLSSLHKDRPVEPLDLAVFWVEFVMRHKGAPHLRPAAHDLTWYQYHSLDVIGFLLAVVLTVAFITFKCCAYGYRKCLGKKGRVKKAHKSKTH
# [8] = molecular target: T8, Glutathione S-transferase A4 (Homo sapiens, UniProt O15217); assay: Substrates for human cytosolic glutathione transferase GSTA4
# T8 sequence (O15217 whole entry): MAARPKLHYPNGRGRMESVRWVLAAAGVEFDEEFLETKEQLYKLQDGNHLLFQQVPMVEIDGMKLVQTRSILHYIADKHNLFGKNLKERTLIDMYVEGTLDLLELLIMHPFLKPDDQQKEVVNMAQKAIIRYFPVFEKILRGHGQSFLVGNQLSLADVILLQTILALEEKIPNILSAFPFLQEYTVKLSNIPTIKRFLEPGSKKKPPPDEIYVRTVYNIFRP
# [9] = molecular target: T9, UDP-glucuronosyltransferase 1A9 (Homo sapiens, UniProt O60656); assay: Substrate of human UDP-glucuronosyltransferase UGT1A9
# T9 sequence (O60656 whole entry): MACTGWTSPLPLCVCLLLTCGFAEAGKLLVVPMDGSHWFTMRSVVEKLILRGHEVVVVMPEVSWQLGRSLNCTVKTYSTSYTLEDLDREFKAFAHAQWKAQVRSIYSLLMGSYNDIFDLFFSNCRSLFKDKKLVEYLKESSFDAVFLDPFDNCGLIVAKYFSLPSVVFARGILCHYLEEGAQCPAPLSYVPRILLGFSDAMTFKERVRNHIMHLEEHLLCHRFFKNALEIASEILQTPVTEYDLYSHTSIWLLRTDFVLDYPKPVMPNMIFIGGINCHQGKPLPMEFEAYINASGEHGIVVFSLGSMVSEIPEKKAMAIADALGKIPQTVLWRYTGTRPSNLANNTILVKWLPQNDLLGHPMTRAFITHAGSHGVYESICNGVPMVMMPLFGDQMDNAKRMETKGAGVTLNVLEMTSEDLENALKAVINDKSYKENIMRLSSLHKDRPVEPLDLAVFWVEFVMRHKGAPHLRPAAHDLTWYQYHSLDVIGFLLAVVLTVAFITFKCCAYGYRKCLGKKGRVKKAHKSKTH
# [10] = molecular target: T2, Cytochrome P450 2C8; assay: Clinically relevant inhibitors of human liver microsomal P450 enzymes, isoform CYP2C8; details: microsomes
# [11] = molecular target: T10, UDP-glucuronosyltransferase 2B15 (Homo sapiens, UniProt P54855); assay: Substrate of human UDP-glucuronosyltransferase UGT2B15
# T10 sequence (P54855 whole entry): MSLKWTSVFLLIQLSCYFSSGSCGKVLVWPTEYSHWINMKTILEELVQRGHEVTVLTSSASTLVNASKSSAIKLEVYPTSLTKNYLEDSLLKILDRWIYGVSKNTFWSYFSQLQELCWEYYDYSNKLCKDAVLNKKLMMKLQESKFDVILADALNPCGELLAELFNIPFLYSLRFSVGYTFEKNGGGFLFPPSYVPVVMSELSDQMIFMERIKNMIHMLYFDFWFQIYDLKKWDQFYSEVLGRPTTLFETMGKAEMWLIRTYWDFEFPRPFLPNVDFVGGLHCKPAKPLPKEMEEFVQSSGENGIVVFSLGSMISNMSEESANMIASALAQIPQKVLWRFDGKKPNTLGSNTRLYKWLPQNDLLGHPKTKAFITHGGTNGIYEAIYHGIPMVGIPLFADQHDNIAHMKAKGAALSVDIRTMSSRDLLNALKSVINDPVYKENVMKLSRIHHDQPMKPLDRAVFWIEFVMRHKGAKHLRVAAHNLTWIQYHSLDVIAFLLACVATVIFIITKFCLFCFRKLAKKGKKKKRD
# [12] = molecular target: T11, Glutathione S-transferase Mu 2 (Homo sapiens, UniProt P28161); assay: Substrates for human cytosolic glutathione transferase GSTM2
# T11 sequence (P28161 whole entry): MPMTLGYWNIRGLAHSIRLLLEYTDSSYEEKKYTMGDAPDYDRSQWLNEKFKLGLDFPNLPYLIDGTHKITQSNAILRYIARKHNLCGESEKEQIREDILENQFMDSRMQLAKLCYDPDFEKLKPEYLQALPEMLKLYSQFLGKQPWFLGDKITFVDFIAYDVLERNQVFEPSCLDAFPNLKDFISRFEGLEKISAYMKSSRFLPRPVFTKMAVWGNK
# [13] = molecular target: Glutathione S-transferase P (Homo sapiens, UniProt P09211); assay: Substrates for human cytosolic glutathione transferase GSTP1
# Chain of Glutathione S-transferase P (P09211 whole entry): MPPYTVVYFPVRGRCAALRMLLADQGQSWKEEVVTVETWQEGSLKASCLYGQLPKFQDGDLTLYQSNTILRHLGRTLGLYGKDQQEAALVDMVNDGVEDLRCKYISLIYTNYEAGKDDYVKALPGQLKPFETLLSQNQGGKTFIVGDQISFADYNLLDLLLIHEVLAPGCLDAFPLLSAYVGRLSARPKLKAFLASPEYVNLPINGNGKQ
smiles,measurement,setting,value
CCCCC[C@@H](/C=C/C=C\C/C=C\C/C=C\CCCC(=O)O)OO,Activity,[1],Substrate
COCc1c(C(C)C)nc(C(C)C)c(/C=C/[C@@H](O)C[C@@H](O)CC(=O)O)c1-c1ccc(F)cc1 [CERIVASTATIN],Activity,[2],Substrate
O=c1c(O)c(-c2ccccc2)oc2cc(O)cc(O)c12 [GALANGIN],Activity,[3],Substrate
CCCCC/C=C\C/C=C\C/C=C\C=C\CCCCC(=O)O,Activity,[1],Substrate
CCOc1cc(CC(=O)N[C@@H](CC(C)C)c2ccccc2N2CCCCC2)ccc1C(=O)O [REPAGLINIDE],Activity,[2],Substrate
O=C(O)CF [FLUOROACETATE],Activity,[4],Substrate
COc1ccccc1OCCNCC(O)COc1cccc2[nH]c3ccccc3c12 (configuration not stated) [CARVEDILOL],Activity,[5],Substrate
same,Activity,[6],Substrate
same,Activity,[7],Substrate
C=CCc1ccc(O)c(OC)c1 [EUGENOL],Activity,[3],Substrate
CCCCCC(O)/C=C/C=O (configuration not stated) [4-HYDROXYNON-2-ENAL],Activity,[8],Substrate
CC(=O)O[C@H]1C(=O)[C@@]2(C)[C@H]([C@H](OC(=O)c3ccccc3)[C@]3(O)C[C@H](OC(=O)[C@H](O)[C@@H](NC(=O)c4ccccc4)c4ccccc4)C(C)=C1C3(C)C)[C@]1(OC(C)=O)CO[C@@H]1C[C@@H]2O [PACLITAXEL],Activity,[2],Substrate
COc1cc2ccc(=O)oc2cc1O [SCOPOLETIN],Activity,[3],Substrate
same,Activity,[9],Substrate
CC(Cl)C(=O)O (configuration not stated),Activity,[4],Substrate
CCCCCCC(O)/C=C/C=O (configuration not stated),Activity,[8],Substrate
C=C(CC)C(=O)c1ccc(OCC(=O)O)c(Cl)c1Cl [ETHACRYNIC ACID],Activity,[8],Substrate
C[C@]12CC[C@@H](O)C[C@@H]1CC[C@@H]1[C@@H]2CC[C@]2(C)C(=O)CC[C@@H]12 [ANDROSTERONE],Activity,[5],Substrate
CN(CCOc1ccc(CC2SC(=O)NC2=O)cc1)c1ccccn1 (configuration not stated) [ROSIGLITAZONE],Activity,[2],Substrate
same,Activity,[10],Inhibitor
C[C@]12CC[C@@H]3c4ccc(O)cc4CC[C@H]3[C@@H]1C[C@@H](O)[C@@H]2O [ESTRIOL],Activity,[5],Substrate
same,Activity,[11],Substrate
C/C=C/C(=O)OCC1=CCCCC1=O,Activity,[12],Substrate
same,Activity,[8],Substrate
same,Activity,[13],Substrate
O=C(O)/C=C\C(=O)CC(=O)CC(=O)O [MALEYLACETOACETATE],Activity,[4],Substrate
O=C(O)C(Cl)Cl [DICHLOROACETIC ACID],Activity,[4],Substrate
